Measured values as given in patent publication EP4741383A1, “COMPOUND AND USE THEREOF AS ANTI-CANCER DRUG” (Tyligand Bioscience (Shanghai) Limited, priority 2023, dated 2025).
Read-outs that look alike come from different tables or passages of the source.

Assay: Rat PK study (IV 1 mg/kg and PO 5 mg/kg)
Type: in vivo, male SD rats
Conditions: for AUC(0-t) / clearance / half-life / Vd / Cmax: male, SD, rat, plasma; for clearance: read-out: IV Cl; for Vd: read-out: IV Vz
Experimental: According to standard methods for rat PK studies in this field, the rat PK tests for the representative compounds of this disclosure and the positive control compound (11a-1) were conducted as follows.
Specifically, six male SD rats (6-8 weeks old, weighing 200 ± 20 g, purchased from Vital River Laboratories) were randomly divided into two groups of three rats each, for intravenous (IV) and oral gavage (PO) administration, respectively.
For the intravenous injection group: the test compound was weighed according to the administration dose (1 mg/kg), dissolved using the solvent listed in the table below to obtain a clear solution of 1 mg/mL, and administered to the rats via tail vein injection at a dose of 1 mg/kg. […]
Blood was collected via jugular vein puncture at various time points: 0.083, 0.25, 0.5, 1, 2, 4, 6, 8, and 24 hours. 0.2 mL of whole blood was collected at each time point, placed in a 1.5 mL anticoagulant tube containing EDTA, and placed on a sample plate containing wet ice until centrifugation; after centrifugation at 8000 rpm for 10 minutes at 4°C, 0.1 mL of plasma sample was collected and stored in an […] cryovial at -20°C until analysis.
Preparation of the stock solution of the test compound: 1 mg of the test compound was accurately weighed, dissolved in 1 mL of DMSO to prepare a 1 mg/mL stock solution S1, and stored in a 4°C refrigerator until use.
Preparation of the internal standard working solution: 0.1 mL of tolbutamide (2 mg/mL) internal standard stock solution was pipetted into 1000 mL of acetonitrile to prepare a 200 ng/mL internal standard working solution, which is used as a protein precipitant in sample pretreatment. The prepared internal standard working solution was stored at 4°C and valid for 12 months.
Preparation of the standard curve and quality control sample working solutions: 50 µL of the 1 mg/mL test compound DMSO stock solution S1 was diluted with 950 µL of 100% methanol solution to obtain a working solution with a concentration of 50000 ng/mL. Then, the 50000 ng/mL working solution was serially diluted with 100% methanol solution to obtain a series of standard curve working solutions with concentrations of 10, 20, 50, 100, 500, 1000, 5000, 10000, 20000, and 50000 ng/mL. 40 µL of the 1 mg/mL test compound DMSO stock solution S1 was diluted with 960 µL of 100% methanol solution to obtain a quality control sample working solution with a concentration of 40000 ng/mL. An appropriate amount of this working solution was diluted appropriately to prepare quality control sample working solutions with concentrations of 8000 and 16000 ng/mL. 60 µL of the 50 ng/mL test compound DMSO standard curve working solution was diluted with 40 µL of 100% methanol solution to obtain a quality control sample working solution with a concentration of 30 ng/mL.
Plasma sample treatment: standard curve and quality control samples for the test compound in plasma were prepared by diluting 5 µL of working solutions of different concentrations of the test compound for the standard curve and quality control samples in 45 µL of blank rat plasma, resulting in final concentrations of 1, 2, 5, 10, 50, 100, 500, 1000, 2000, and 5000 ng/mL for the standard curve and final concentrations of 3, 800, 1600, and 4000 ng/mL for the quality control samples.
Plasma sample pretreatment: 50 µL of the plasma sample was transferred to a 96-well plate, added with 500 µL of acetonitrile containing 200 ng/mL tolbutamide as an internal standard for protein precipitation, and centrifuged at 4000 rpm for 20 minutes at 2-8 °C. 300 µL of the supernatant was transferred to a new labeled 96-well plate, mixed thoroughly with 300 µL of 0.1% formic acid in water, and injected 10 µL into LC-MS/MS (API-4000 Qtrap-Shimadzu Controller-CBM20A).
The internal standard method was used for sample analysis. Data acquisition and analysis were performed using Analyst 1.6.3. […]

[1] = 1 mg/kg, IV, dose 1 mpk, read-out: IV AUC 0->t
[2] = 1 mg/kg, IV, dose 1 mpk, read-out: IV T1/2 (converted)
[3] = 5 mg/kg, PO, dose 5 mpk, read-out: PO AUC 0->t
[4] = 5 mg/kg, PO, dose 5 mpk, read-out: PO T1/2 (converted)

For `Cn1c(-c2cccc(NC(=O)C(=O)Nc3ccc(-c4ccsc4)cc3)c2)c(I)c2cc(C(=O)O)c(O)cc21` [Example 11a-1, reference compound], the “PO F” value (PO, dose 10 mpk (IV 1 mpk)) was 0.07%, the AUC(0-t) [1] was 4230 ng·h/mL and the clearance (1 mg/kg, IV, dose 1 mpk) was 4 mL/min/kg. The half-life [2] was 4.06 h, the Vd (1 mg/kg, IV, dose 1 mpk) was 1.42 L/kg and the Cmax (10 mg/kg, PO, dose 10 mpk) was 44.2 ng/mL. For the same compound, the AUC(0-t) (10 mg/kg, PO, dose 10 mpk, read-out: PO AUC 0->t) was 30 ng·h/mL and the half-life (10 mg/kg, PO, dose 10 mpk, read-out: PO T1/2 (converted)) was 1.1 h.

For `O=C(Nc1ccc(-c2cc3cc(F)c(-c4nnn[nH]4)cc3n2C2CCC2)cc1)C(=O)Nc1ccc(N2CCC(CO)CC2)cc1` [Example 23], the “PO F” value (PO, dose 5 mpk (IV 1 mpk)) was 52.7%, the AUC(0-t) [1] was 2840 ng·h/mL and the clearance (1 mg/kg, IV, dose 1 mpk) was 5.45 mL/min/kg. The half-life [2] was 8.49 h, the Vd (1 mg/kg, IV, dose 1 mpk) was 4.01 L/kg and the Cmax (5 mg/kg, PO, dose 5 mpk) was 1140 ng/mL. The AUC(0-t) [3] was 8010 ng·h/mL and the half-life [4] was 3.17 h.

In the case of `CC1(n2c(-c3ccc(NC(=O)C(=O)Nc4ccc(N5CCC6(CCOC6)CC5)cc4)cc3)cc3cc(F)c(-c4nnn[nH]4)cc32)CCC1` [Example 68], the “PO F” value (PO, dose 5 mpk (IV 1 mpk)) is reported as 30.5%, the AUC(0-t) [1] is reported as 1380 ng·h/mL and the clearance (1 mg/kg, IV, dose 1 mpk) is reported as 12.6 mL/min/kg. For the same compound, the half-life [2] was 1.63 h, the Vd (1 mg/kg, IV, dose 1 mpk) was 1.57 L/kg and the Cmax (5 mg/kg, PO, dose 5 mpk) was 150 ng/mL. The AUC(0-t) [3] was 2100 ng·h/mL and the half-life [4] was 4.31 h.
